Patent US4308168A, “Vapor phase corrosion inhibitor compositions and method of inhibiting corrosion using said compositions” (priority 1978, dated 1981)

How the values were obtained:
[1] = Rust formation on polished carbon steel at a distance of 25 cm in closed vessel (vapor phase, condensed water); parameters: key: The amount of the rust is less than that in the blank test.; x: The amount of the rust is the same as that in the blank test; conditions: 20 mg sample, 5-liter vessel, 20°±2° C., observed 5 hours after water condensation
Description: A laboratory dish containing 20 milligrams of each sample obtained in the preceding Examples was added to a 5-liter glass vessel containing 50 milliliters of 30% aqueous solution of glycerin.
A piece of polished carbon steel (JIS G-4051) was arranged at the upper part of the vessel, at a distance of 25 centimeters from the dish. After keeping the vessel at 20°±2° C. during 1-5 days, water droplets were condensed on a surface of steel from moisture by pouring cold water into an aluminum pipe, and after 5 hours the presence of the rust on the steel piece was observed.

[2] = Oral acute toxicity, LD50 in rats; conditions: rat, in vivo, rats weighing 90 grams, fasted 24 hours, one week
Description: Specifics of the chemicals listed in Table 2 were administered orally in various concentration to respective groups of 10 rats weighing 90 grams after fasting for 24 hours.
After oral administration of the chemical, the rats were fed with a sufficient amount of a diet and water and kept in a thermo-hygrostat at a temperature of 25° C. and humidity of 60% during one week to determine the LD50.

[3] = prior-art inhibitors; mineral oil; cited from earlier work
[4] = ambient temperatures; cited from earlier work

Row | Structure (SMILES) | presence of rust on steel piece, after leaving for 1 day [1] | presence of rust on steel piece, after leaving for 5 days [1] | solubility in water (Solubility in water) | LD50 at 168 h [2] | solubility in oil [3] | distance of diffusion of gas [4]
1 | CC(C)(C)OC(=O)CN | o | o |  |  |  | 
2 | CC(N)C(=O)OC(C)(C)C (stereo not drawn) [α-alanine-tert-butyl ester, α-alanine-tert-butylester] | o | o | wholly soluble in water |  |  | 
3 | CC(C)(C)OC(=O)[C@@H]1CCCN1 [proline-tert-butyl ester, proline-tert-butylester] | o | o |  | > 5000 mg/kg |  | 
4 | CCOC(=O)C(C)N (stereo not drawn) [α-alanine ethyl ester] | o | o |  | > 5000 mg/kg |  | 
5 | C1CCC(NC2CCCCC2)CC1.O=[N+]([O-])O [DICHAN, dicyclohexylamine nitrate, reference compound] | x | x |  | 200 mg/kg | no solubility in oil | about 30 cm.
6 | CNCC(=O)OC(C)(C)C [N-methylglycine-tert-butyl ester, N-methylglycine-tert-butylester] | o | o |  |  |  | 
7 | CC(C)(C)OC(=O)[C@@H](N)Cc1ccccc1 [phenylalanine-tert-butyl ester, phenylalanine-tert-butylester] | o | o |  |  |  | 
8 | C1CCC(NC2CCCCC2)CC1 [FERROGUARD] |  |  |  |  | only slightly soluble in mineral oil | 
9 | C1CCC(NC2CCCCC2)CC1 [dicyclohexylamine, reference compound] |  |  |  | 500 mg/kg |  | 
10 | CC(C)(C)OC(=O)CCN [β-alanine-tert-butyl ester, β-alanine-tert-butylester] | o | o | wholly soluble in water |  |  | 
